Measurements reported in patent US20030181436A1, “Treatment for AIDS, HIV, and other related diseases and compounds for use therewith” (priority 2001, published 2003).

Experiments:
Type in all cases: cell-based
ACH-2 cells = test: ACH-2 assay, compound toxicity by MTS dye reduction; set-up: Y. CC / 9′. CC: unit not given here
Procedure: (§1) At assay termination the assay plates were stained with the soluble tetrazolium-based dye MTS (CellTiter® Reagent, Promega) to determined cell viability and quantify compound toxicity. […] At termination of the assay 20 μL of MTS reagent was added per well. The wells were incubated for 4 h at 37° C., 5% CO2. Adhesive plate scalers were used in place of the lids, the sealed plate was inverted several times to mix the soluble formazan product and the plate was read spectrophotometrically at 490 nm with a 650 nm reference wavelength on a Molecular Devices Vmax plate reader.
(§2) U1 and ACH-2 cells were obtained from the AIDS Research and Reference Reagent Program and maintained under standard culture conditions in RPMI 1640 supplemented with 10% fetal bovine serum (heat inactivated), supplemented with 2 mM […], 100U/ml penicillin and 100 μg/ml, streptomycin. U1 cells were derived from the histocytic leukemia cell line U937, and contain a single integrated copy (HIV IIIB) […] a cytokine and/or phorbol inducible provirus. ACH-2 cells are derived from the A3.01 T lymphoblastic cell line, and contain 2 copies of the HIV IIIB provirus, however only one is cytokine and/or phorbol inducible. Cultures were maintained in such a way as to ensure exponential growth of the populations. At the time of the assay, cells were collected by centrifugation and counted by hemacytometer. If cell viability by Trypan Blue dye exclusion was less than 70% the assay was terminated. The cells were adjusted to 5×10^4 cells/mL and 100 μL, placed in 96 well plates with 100 μL media containing a final concentration of […] TNFα and the test compound. Cultures were incubated for 3 days and supernatants harvested. Compound toxicity was determined by MTS dye reduction. Virus expression was measured by supernatant reverse transcriptasc activity.

[1] = test system: TNFα induced U1 cells (HIV IIIB provirus); test: U1 latent infection assay, supernatant reverse transcriptase activity; details: for % VC / RT ACTIVITY (cpm) MEAN: exp 2; for RT VALUES (cpm) MEAN / X VC: exp 1
Procedure: as §2
Reverse transcriptase activity was measured in cell-free supernatants. Tritiated thymidine triphosphate (NEN) (TTP) was resuspended in distilled H2O at 5 Ci/mL. Poly rA and oligo dT were prepared as a stock solution which was kept at −20° C. The RT reaction buffer was prepared fresh on a daily basis and consists of 125 μL 1.0 M EGTA, 125 μL dH2O, 110 μL 10% SDS, 50 μL 1.0 M Tris (pH 7.4), 50 μL, 1.0 M DTT, and 40 μL 1.0 M MgCl2. These three solutions were mixed together in a ratio of 2 parts TTP, 1 part poly rA:oligo dT, and 1 part reaction buffer. Ten microliters of this reaction mixture was placed in a round bottom microtiter plate and 15 μL of virus containing supernatant was added and mixed. The plate was incubated at 37° C. in a water bath with a solid support to prevent submersion of the plate and incubated for 60 minutes. Following reaction, the reaction volume was spotted onto pieces of DE81 paper, washed 5 times for 5 minutes each in a 5% sodium phosphate buffer, 2 times for 1 minute each in distilled water, 2 times for 1 minute each in 70% ethanol, and then dried. Opti-Fluor O was added to each sample and incorporated radioactivity was quantitated utilizing a Wallac 1450 Microbetaplus liquid scintillation counter.

U1 cells = test: U1 assay, compound toxicity by MTS dye reduction; set-up: TC50: unit not given here
Procedure: as §1, §2

HIV = test: HeLa CD4 LTR β-gal time of addition assay; details: single round, high M.O.I.
Text: This time of addition assay measures reproducible events from initial virus binding to the trans activation of the β-galactosidase reporter by newly produced Tat protein. This is a single round of infection assay and is thus “cleaner” and more “precise” than a multi-round time of addition assay. […] Since it is hypothesized that the K and Z compounds work by interfering with virus transcription the later possibility seems more likely. Thus the use of a time of addition assay with PBMCs was utilized.

## Zinc Iodiscorbate [Compound Z]
ACH-2 cells; 0.00063 μg/ml, exp 2
  TOXICITY VALUES (MTS) MEAN: 0.975 O, p.
ACH-2 cells; 0.002 μg/ml, exp 2
  TOXICITY VALUES (MTS) MEAN: 0.929 O, p.
ACH-2 cells; 0.00626 μg/ml, exp 2
  TOXICITY VALUES (MTS) MEAN: 0.961 O, p.
ACH-2 cells; 0.02 μg/ml, exp 2
  9′. CC: 101.1
  TOXICITY VALUES (MTS) MEAN: 1.006 O, p.
ACH-2 cells; 0.0625 μg/ml, exp 2
  TOXICITY VALUES (MTS) MEAN: 0.894 O, p.
ACH-2 cells; 0.2 μg/ml, exp 2
  9′. CC: 81.0
  TOXICITY VALUES (MTS) MEAN: 0.807 O, p.
ACH-2 cells; 0.625 μg/ml, exp 2
  9′. CC: 72.2
  TOXICITY VALUES (MTS) MEAN: 0.718 O, p.
ACH-2 cells; 2 μg/ml, exp 2
  9′. CC: 70.0
  TOXICITY VALUES (MTS) MEAN: 0.696 O, p.
ACH-2 cells; 6.25 μg/ml, exp 2
  9′. CC: 40.1
  TOXICITY VALUES (MTS) MEAN: 0.399 O, p.
ACH-2 cells; 20 μg/ml, exp 2
  9′. CC: 0.0
  TOXICITY VALUES (MTS) MEAN: 0.000 O, p.
ACH-2 cells; 62.5 μg/ml, exp 2
  9′. CC: 0.0
  TOXICITY VALUES (MTS) MEAN: 0.000 O, p.
ACH-2 cells; 200 μg/ml, exp 2
  9′. CC: 0.0
  TOXICITY VALUES (MTS) MEAN: 0.000 O, p.
ACH-2 cells; 0.00063 μG/Ml, exp 1
  TOXICITY VALUES (MTS) MEAN: 1.061 O. D.
ACH-2 cells; 0.002 μG/Ml [c9], exp 1
  TOXICITY VALUES (MTS) MEAN: 1.049 O. D.
ACH-2 cells; 0.002 μG/Ml [c11], exp 1
  TOXICITY VALUES (MTS) MEAN: 1.081 O. D.
ACH-2 cells; 0.00625 μG/Ml, exp 1
  TOXICITY VALUES (MTS) MEAN: 1.019 O. D.
ACH-2 cells; 0.0625 μG/Ml, exp 1
  TOXICITY VALUES (MTS) MEAN: 0.984 O. D.
ACH-2 cells; 0.2 μG/Ml, exp 1
  TOXICITY VALUES (MTS) MEAN: 1.002 O. D.
ACH-2 cells; 0.625 μG/Ml, exp 1
  TOXICITY VALUES (MTS) MEAN: 0.939 O. D.
ACH-2 cells; 2 μG/Ml, exp 1
  % CC: 88.1%
  TOXICITY VALUES (MTS) MEAN: 0.885 O. D.
ACH-2 cells; 6.25 μG/Ml, exp 1
  % CC: 81.8%
  TOXICITY VALUES (MTS) MEAN: 0.822 O. D.
ACH-2 cells; 20 μG/Ml, exp 1
  % CC: 85.1%
  TOXICITY VALUES (MTS) MEAN: 0.856 O. D.
ACH-2 cells; 62.5 μG/Ml, exp 1
  % CC: 6.3%
  TOXICITY VALUES (MTS) MEAN: 0.063 O. D.
ACH-2 cells; 200 μG/Ml, exp 1
  % CC: 1.3%
  TOXICITY VALUES (MTS) MEAN: 0.013 O. D.
ACH-2 cells; ACH2, exp 1, Table 2
  TC50: ITC50 (μG/Ml) = 38.94
ACH-2 cells; ACH-2, experiment 1, Table 1
  TC50: 39
ACH-2 cells; ACH-2, experiment 2, Table 1
  TC50: 4.8
ACH-2 cells; exp 2
  ACH2 TC50: 4.8 µg/mL
ACH-2 cells; exp 2, listed as COMPOUND Z
  ACH2 TC50: TC50 (vg/mol) = 4.84 μg/ml
[1]
  activity in the U1 assay: inactive
[1]; 0.00063 ug/ml
  % VC: 110.1%
[1]; 0.002 ug/ml
  % VC: 105.4%
  RT ACTIVITY (cpm) MEAN: 3245 cpm
[1]; 0.00625 ug/ml
  % VC: 99.9%
  RT ACTIVITY (cpm) MEAN: 3077 cpm
[1]; 0.02 ug/ml
  % VC: 94.2%
  RT ACTIVITY (cpm) MEAN: 2902 cpm
[1]; 0.0625 ug/ml
  % VC: 93.9%
  RT ACTIVITY (cpm) MEAN: 2891 cpm
[1]; 0.2 ug/ml
  % VC: 101.2%
  RT ACTIVITY (cpm) MEAN: 3115 cpm
[1]; 0.625 ug/ml
  RT VALUES (cpm) MEAN: 2504.7 cpm
  X VC: 106.3
  % VC: 64.4%
  RT ACTIVITY (cpm) MEAN: 1984 cpm
[1]; 2 ug/ml
  RT VALUES (cpm) MEAN: 2492.7 cpm
  X VC: 105.8
  % VC: 59.7%
  RT ACTIVITY (cpm) MEAN: 1838 cpm
[1]; 6.25 ug/ml
  RT VALUES (cpm) MEAN: 2813.0 cpm
  X VC: 119.4
  % VC: 66.9%
  RT ACTIVITY (cpm) MEAN: 2059 cpm
[1]; 20 ug/ml
  RT VALUES (cpm) MEAN: 2385.7 cpm
  X VC: 101.2
  % VC: 63.2%
  RT ACTIVITY (cpm) MEAN: 1947 cpm
[1]; 62.5 ug/ml
  RT VALUES (cpm) MEAN: 2253.7 cpm
  X VC: 95.6
  % VC: 39.78%
  RT ACTIVITY (cpm) MEAN: 1225 cpm
[1]; 200 ug/ml
  RT VALUES (cpm) MEAN: 802.7 cpm
  X VC: 34.1
  % VC: 30.84%
  RT ACTIVITY (cpm) MEAN: 950 cpm
[1]; U1, exp 2, Table 8
  IC50: IC50 (uglml) = 43.99
[1]; U1, experiment 1, Table 1
  IC50: 164 µg/mL
[1]; U1, experiment 2, Table 1
  IC50: 44 µg/mL
[1]; U1/TNFα, exp 1, Table 3
  IC50: IC50 (ug/ml) = ..164.40
[1]; exp 2, Table 4
  U1 EC50: 44.0 µg/mL
U1 cells; 0.00063 ug/ml, exp 2
  TOXICITY VALUES MEAN: 1.055 O. D.
U1 cells; 0.002 ug/ml, exp 2
  % CC: 90.5%
  TOXICITY VALUES MEAN: 0.963 O. D.
U1 cells; 0.00625 ug/ml, exp 2
  TOXICITY VALUES MEAN: 1.103 O. D.
U1 cells; 0.02 ug/ml, exp 2
  TOXICITY VALUES MEAN: 1.064 O. D.
U1 cells; 0.0625 ug/ml, exp 2
  TOXICITY VALUES MEAN: 1.072 O. D.
U1 cells; 0.2 ug/ml, exp 2
  TOXICITY VALUES MEAN: 1.031 O. D.
U1 cells; 0.625 ug/ml, exp 1
  TOXICITY VALUES (MTS) MEAN: 1.791 O. D.
U1 cells; 0.625 ug/ml, exp 2
  % CC: 81.6%
  TOXICITY VALUES MEAN: 0.868 O. D.
U1 cells; 2 ug/ml, exp 1
  TOXICITY VALUES (MTS) MEAN: 1.732 O. D.
U1 cells; 2 ug/ml, exp 2
  % CC: 82.3%
  TOXICITY VALUES MEAN: 0.876 O. D.
U1 cells; 6.25 ug/ml [c2], exp 2
  % CC: 35.3%
  TOXICITY VALUES MEAN: 0.376 O. D.
U1 cells; 6.25 ug/ml [c4], exp 2
  TOXICITY VALUES MEAN: 1.118 O. D.
U1 cells; 6.25 ug/ml, exp 1
  TOXICITY VALUES (MTS) MEAN: 1.649 O. D.
U1 cells; 20 ug/ml, exp 1
  % CC: 91.7%
  TOXICITY VALUES (MTS) MEAN: 1.625 O. D.
U1 cells; 20 ug/ml, exp 2
  % CC: 61.7%
  TOXICITY VALUES MEAN: 0.658 O. D.
U1 cells; 62.5 ug/ml, exp 1
  % CC: 77.8%
  TOXICITY VALUES (MTS) MEAN: 1.379 O. D.
U1 cells; 200 ug/ml, exp 1
  % CC: 3.6%
  TOXICITY VALUES (MTS) MEAN: 0.063 O. D.
U1 cells; 200 ug/ml, exp 2
  % CC: 7.1%
  TOXICITY VALUES MEAN: 0.076 O. D.
U1 cells; U1, experiment 1, Table 1
  TC50: 114
U1 cells; U1, experiment 2, Table 1
  TC50: 39
U1 cells; exp 2
  U1 TC50: 38.8 µg/mL
U1 cells; exp 2, listed as COMPOUND Z
  U1 TC50: TC50 (uglml) = 38.80 μg/ml
HIV
  inhibition of HIV replication: failed to inhibit
